Experimental data from article PMC6219699 (Nuclear medicine communications, 2011).

Biological target: T1, human sodium/iodide symporter (hNIS) (Homo sapiens, UniProt Q92911)
T1 sequence (Q92911 1-643): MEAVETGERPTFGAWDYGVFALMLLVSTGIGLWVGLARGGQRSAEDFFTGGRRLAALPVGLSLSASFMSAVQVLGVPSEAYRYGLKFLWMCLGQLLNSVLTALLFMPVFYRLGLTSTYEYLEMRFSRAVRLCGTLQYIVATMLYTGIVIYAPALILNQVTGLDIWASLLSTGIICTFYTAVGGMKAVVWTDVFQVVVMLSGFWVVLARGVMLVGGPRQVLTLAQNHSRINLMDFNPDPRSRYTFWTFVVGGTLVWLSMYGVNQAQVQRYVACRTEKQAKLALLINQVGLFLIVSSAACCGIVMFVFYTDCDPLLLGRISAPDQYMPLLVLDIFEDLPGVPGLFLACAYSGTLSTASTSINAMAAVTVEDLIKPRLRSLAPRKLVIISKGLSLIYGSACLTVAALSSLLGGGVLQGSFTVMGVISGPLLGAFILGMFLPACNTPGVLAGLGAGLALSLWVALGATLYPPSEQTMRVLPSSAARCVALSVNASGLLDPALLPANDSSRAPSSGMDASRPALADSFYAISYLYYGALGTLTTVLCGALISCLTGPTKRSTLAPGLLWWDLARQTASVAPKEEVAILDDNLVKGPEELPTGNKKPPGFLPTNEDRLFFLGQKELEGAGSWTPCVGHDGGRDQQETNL
Format: cell-based

IC50: 740 nM
Compound: F[B-](F)(F)F [tetrafluoroborate]
